Laboratory results from patent publication US4021481A, “Amido derivatives of 2,4,6-triiodobenzoic acids containing at least one N-hydroxyalkyl and at least two hydroxyl groups” (Nyegaard & Co. A/S, priority 1969, dated 1977).

Columns and labels:
mice [1] = test: Intracerebral toxicity in mice (LD50); type: in vivo
From the text: (§1) As indicated above, the new non-ionic compounds according to the invention have shown markedly low levels of toxicity, especially in intracerebral tests. […] It will be seen that all the new compounds listed are very much better than the known compounds in the intracerebral test.
(§2) Intravenous and Intracerebral Toxicity
(§3) Most of the compounds were so inert that it was not physically possible to inject sufficient substance to kill 50% of the mice and in such cases only a minimum value can be given for the LD50.

mice [2] = test: Intravenous toxicity in mice (LD50); type: in vivo; conditions: concentration administered 300 mgI/ml
From the text: as §1, §2, §3

[3] = Osmolality of aqueous solution; type: physicochemical; conditions: 37° C.; 300 mg I/ml
Procedure: As indicated above, the compounds according to the invention are of low osmolality as compared to conventional ionic contrast agents and many of the compounds show even lower osmolality values than would have been expected. The observed osmolality in each case would be expected to be about 0.8 mol/kg but compounds 3, 33, 35, 44 and 11 identified in Table I have shown osmolality values of 0.47, 0.48, 0.61, 0.53 and 0.48 mol/kg respectively at 37° C. (300 mg I ml). The last two compounds in Table 2, which are ionic compounds shown for comparison, have osmolality values of about 1.6 mol/kg.

Solubility in water = type: physicochemical; conditions: water, room temperature; read-out: Solubility in water at room temperature (class)
[4] = subarachnoideal space; in words; cited from earlier work
Viscosity = type: physicochemical; conditions: 20° C.; 300 mgI/ml
From the text: However, the preferred compounds listed above in relation to the myelographic field are also very useful in cardiovascular visualisation due to their extremely good tolerance.

[5] = 300 mgI/ml, dose 0.05 ml/20 g mouse
[6] = 300 mgI/ml, dose 0.10 ml/20 g mouse

Row | Compound | Intracerebral LD50 (mice [1]; [5]) [mgI/kg] | Intravenous LD50 (mice [2]) [mgI/kg] | Osmolality [3] [mol/kg] | solubility (Solubility in water) [mg/mL] | Absorption [4] | Toxicity in use [4] | Intracerebral LD50 (mice [1]; 400 mgI/ml, dose 0.10 ml/20 g mouse) [mgI/kg] | Intracerebral LD50 (mice [1]; [6]) | Viscosity (Viscosity) [cp]
1 | CC(=O)Nc1c(I)c(C(=O)N(C)C[C@H](O)[C@@H](O)[C@H](O)[C@H](O)CO)c(I)c(N(C)C(C)=O)c1I [Compound 3, N-(N-methyl-3,5-diacetamido-2,4,6-triiodobenzoyl)-N-methyl glucamine] | > 750 | 6000 | 0.47 | > 500 | – | – | – | – | –
2 | O=S(=O)(O)CI [iodomethane sulphonate] | – | – | – | – | quite rapidly absorbed | too toxic for cisternography, ventriculography and cervical or thoracic myelography | – | – | –
3 | CC(=O)N(C)c1c(I)c(C(=O)N(C)C[C@H](O)[C@@H](O)[C@H](O)[C@H](O)CO)c(I)c(N(CCO)C(C)=O)c1I [Compound 35, N-[3-N-methylacetamido-5-N-(β-hydroxyethyl)-acetamido-2,4,6-triiodobenzoyl]-N-methylglucamine] | > 750 | – | 0.61 | > 500 | – | – | > 2000 | – | –
4 | CC(=O)Nc1c(I)c(C(=O)N[C@H]2C(O)O[C@H](CO)[C@@H](O)[C@@H]2O)c(I)c(N(C)C(C)=O)c1I (some centres unmarked) [Compound 11, N-(N-methyl-3,5-diacetamido-2,4,6-triiodobenzoyl)-glucosamine] | – | 15000 | 0.48 | > 500 | – | – | – | > 1500 mgI/kg | –
5 | CC(=O)Nc1c(I)c(C(=O)N(C)CC(O)CO)c(I)c(C(=O)N(C)CC(O)CO)c1I (centres unmarked) [Compound 9, 3,5-Bis-[N-(2,3-dihydroxypropyl)-N-methylcarbomoyl]-2,4,6-triiodoacetanilide] | – | 13500 | – | > 500 | – | – | – | about 1500 mgI/kg | 7.1
6 | CC(=O)Nc1c(I)c(C(=O)NC[C@H](O)[C@@H](O)[C@H](O)[C@H](O)CO)c(I)c(N(C)C(C)=O)c1I [Compound 33, N-(N-methyl-3,5-diacetamido-2,4,6-triiodobenzoyl)-D-glucamine] | > 750 | 14250 | 0.48 | > 500 | – | – | – | > 1500 mgI/kg | –
